Article PMC10254852, “Design, Synthesis and Anticancer Evaluation of Nitroimidazole Radiosensitisers” (Molecules, 2023)
Read-outs that look alike come from different tables or passages of the source.

Tests used:
FaDu cells = assay: In vitro cytotoxicity, 4 h exposure oxic/anoxic, 5-day regrowth, sulforhodamine B; format: cell-based; conditions: for IC50: Homo sapiens, 4 h exposure, mean ± SEM
[1] = system: HCT116/54C tumour xenografts; assay: Tumour growth inhibition in combination with radiation; format: in vivo, NIH-III mice; conditions: HCT116/54C tumours
Experimental: (§1) Specific pathogen-free six- to eight-week-old female NIH-III mice, bred in the Vernon Jansen Unit, University of Auckland, were used for animal experiments. Animals had ad libitum access to food and water and were maintained in microisolator cages on a 12 h light/dark cycle. All treatments were administered by i.v. injection at a dose of 2.2 mmol/kg and injection volume of 10 mL/kg. Compounds 2, 34 and 38 were administered as solutions in saline containing 1% DMSO or for 9–12 as solutions in saline containing 2 molar equivalents of NaHCO3. Control animals received an i.v. injection of saline at 10 mL/kg. All animal experiments were conducted under the auspices of the University of Auckland Animal Ethics Committee (approval 1781).
(§2) Compounds were evaluated for their ability to inhibit tumour growth in combination with a single dose of radiation (10 Gy) in HCT116/54C or UT-SCC-74B tumour xenografts on the backs of NIH-III mice. In addition, a fractionated radiation schedule (5 Gy on Days 1, 7 and 14) was explored in HCT116/54C tumour xenografts. Mice were randomly assigned to 4 treatment groups and treated with: (A) vehicle control, (B) 10 Gy RAD only, (C) sensitiser only, or (D) sensitiser given 10 min before 10 Gy RAD. Drugs were administered by i.v. injection at 2.2 mmol/kg either as a single dose or three doses on Days 1, 7 and 14 in the fractionated study. Treatment commenced when the average tumour size reached approximately 250 mm^3, and tumour size was measured until study endpoint. Mice were placed in a custom-built lead-shielded jig that allowed irradiation of the whole tumour but shielded the mouse from radiation. Survival analysis represented the time taken for tumours to increase in relative tumour volume by 4× from the start of treatment (RTV^4). The significance of differences in activity between the groups was assessed by log-rank with Holm–Sidak multiple comparison analysis.

[2] = system: UT-SCC-74B tumour xenografts; assay: as above; format: in vivo, NIH-III mice; conditions: UT-SCC-74B tumours, single dose 2.2 mmol/kg i.v.
Experimental: as §1, §2

[3] = Plasma pharmacokinetics after single i.v. dose; format: in vivo; conditions: female, mouse, iv, NIH-III mice, 2.2 mmol/kg i.v.
Experimental: as §1
Female NIH-III mice were injected with a single i.v. dose of 34 at its MAD of 2.2 mmol/kg in saline. Blood was collected by cardiac puncture under terminal CO2 anaesthesia at 5, 10, 30, 60 and 120 min after dosing. Blood was immediately centrifuged (3000× g, 3 min), and plasma was stored at −80 °C for HPLC. Tumour samples were prepared and analysed by HPLC using standard protocols established in our laboratory.

In the case of `O=[N+]([O-])c1nccn1CS(=O)(=O)NCCN1CCOCC1` [Compound 34], the IC50 (FaDu cells; anoxic, n = 3–4, read-out: IC50 Anoxic) is reported as 160 ± 10 µM, the IC50 (FaDu cells; oxic, n = 3–4, read-out: IC50 Oxic) is reported as 3700 ± 100 µM and the HCR (FaDu cells; IC50(oxic)/IC50(anoxic)) is reported as 23.3. The “survival (time to RTV^4) vs radiation alone” value ([1]; fractionated radiation, p < 0.05) was “significantly increased survival compared to radiation alone”, the “tumour growth delay with fractionated radiation” value ([1]; qw × 3, 5 Gy, 2.2 mmol/kg i.v.) was “delayed tumour growth relative to radiation alone” and the “tumour growth inhibition with single dose 10 Gy radiation” value ([1]; single dose 2.2 mmol/kg i.v.) was “able to sensitise 10 Gy radiation to a similar level observed with 2”. The “tumour growth inhibition with single dose 10 Gy radiation” value [2] was “able to sensitise 10 Gy radiation to a similar level observed with 2”, the AUC [3] was 960 µM·h and the Cmax [3] was 1530 µM. The half-life [3] was 1.52 h.
